Test results reported in patent US20170143712A1, “Methods of Treating Cancers, Immune and Autoimmune Diseases, and Inflammatory Diseases Based on BTK Occupancy and BTK Resynthesis Rate” (Acerta Pharma B.V., priority 2014, published 2017).

What was measured:
Type in all cases: in vivo
[1] = tested on: systemic lupus erythematosus (SLE) in MRL/MpJFASlpr mice; assay: MRL/MpJFASlpr mouse model of systemic lupus erythematosus; settings: 15 mg/kg IP QD
Procedure: A study designed to determine the effects of candidate anti-inflammatory agent Formula (II) in oral (PO), daily (QD) administration in the treatment of systemic lupus erythematosus (SLE) in MRL/MpJFASlpr mice. Formula (II) was preformulated in vehicle (0.4% HPMC, 0.1% Tween 80, with simethicone for antifoaming). The female MRL/MpJFASlpr mice were dosed with vehicle or Formula (II) (1, 5, or 25 mg/kg) daily (QD) by the oral (PO) route dosing, or they were dosed QD by the intraperitoneal (IP) route with the reference compound cyclophosphamide (15 mg/kg). Prior to dosing, the candidate anti-inflammatory agent was reconstituted either by vortexing or stirring. […]
Female MRL/MpJFASlpr mice (n=50) that were 8-9 weeks old and weighed approximately 28-41 grams (mean 34 g) at enrollment (mouse age approx. 12 weeks) were obtained from The Jackson Laboratory, Bar Harbor, Me. (stock number 000485). These mice were housed 3-5/cage in shoe-box polycarbonate cages with wire tops, wood chip bedding, and suspended food and water bottles. No concurrent medications were given.
When they were 12 weeks old (study day 0), the female MRL/MpJFASlpr mice (n=10/group) were randomized by body weight into 5 groups as shown above. Treatment was initiated after randomization and continued for […] (mouse age 12 weeks to 23 weeks).
Starting on study week one, and then every week thereafter urine from each animal was tested for proteinuria using the Clinitech Multistick test strip (Bayer). The animals were also observed daily for significant clinical signs, moribundity and mortality. […] Efficacy evaluation was based on animal body weights, proteinuria analysis, lymphadenopathy scores, skin lesion scores, organ weights, anti-dsDNA titers, clinical chemistry parameters, and histopathologic evaluation of the kidneys.
Any animals showing signs of morbundity were terminated immediately. At necropsy (3 h post-dose, mouse age 23 weeks), all remaining animals were anesthetized with Isoflurane and bled via cardiac puncture for serum and plasma (Li Heparin). The animals were bled to exsanguinate then euthanized by cervical dislocation. Spleens, kidneys (paired), and lymph nodes were collected and weighed. Kidneys were collected into 10% neutral buffered formalin (NBF). Spleens were placed in RPMI 1% FBS media for splenocyte isolation. Serum samples for potential clinical chemistry analysis were stored frozen at −80° C. until shipment to Antech Diagnostics. Plasma samples were stored frozen at −80° C. for mouse antidsDNA IgG analysis by ELISA.
Blood samples were drawn via cardiac puncture from Isoflurane anesthetized animals into serum separator microtainer tubes for clinical chemistries. Samples were shipped to Antech Diagnostics for analysis.

[2] = tested on: established type II collagen-induced arthritis (CIA) in DBA/1 mice; assay: Mouse established CIA, dosing from arthritis day 8, QD or BID (Example 11)
Text: A study was designed to determine the efficacy of a covalently acting BTK inhibitor, Formula (II) in inhibiting acute inflammation, pannus formation, cartilage destruction, and bone resorption associated with established type II collagen-induced arthritis (CIA) in DBA/1 mice. Immunization with heterologous type II collagen (CII) induces arthritis in mice of the DBA/1 strain, which is genetically susceptible to this disease. To develop an experimental model of autoimmunity more adequate for the study of human rheumatoid arthritis (RA), male DBA/1 mice were injected intradermally (ID) with bovine type II collagen to induce arthritis as reported by Trentham et al (Trentham D E, Townes A S, Kang A H Autoimmunity to type II collagen: an experimental model of arthritis. J. Exper. Med. 1977, 146:857-868) and Bendele A (Bendele A, Animal models of rheumatoid arthritis. J. Musculoskelet. Neuronal Interact. 2001, 1(4):377-85).
Following acclimatization, 6-7 week old male DBA/1 mice (n=10/group for arthritis) were immunized at the base of the tail, with 150 μL of Freund's Complete Adjuvant (Difco, Detroit, Mich.) containing 1 mg/mL bovine type II collagen by intradermal injection. Immunizations were performed day 0 and again on day 21. On study days 25-26, on day 8 following onset of arthritis, the mice were randomized into treatment groups. […] Dosing began on arthritis day 8 by oral gavage. Groups were treated with vehicle (0.4% HPMC, 0.2% Tween 80), Formula (II) at 25 mg/kg QD, Formula (II) at 12.5 mg/kg BID, or the reference compound dexamethasone (Dex) at 0.2 mg/kg QD. These animals were fasted overnight on arthritis day 20 (13 days after enrollment) prior to necropsy on arthritis day 21. Clinical scores were given for each of the paws (right front, left front, right rear, left rear) on arthritis days 1-21.
(§1) Efficacy evaluation was based on animal body weights, clinical arthritis scores, arthritis scores expressed as area under the curve (AUC), and histopathology on fore paws, hind paws, and knees. Histopathology results were expressed as 4 paws, knees only, or 6 joints (knees included). Day 19 was used as the endpoint for analysis of body weight change since the male DBA/1 mice were fasted overnight prior to necropsy on day 21.
Necropsies were conducted on fasted mice and terminal serum, fore paws, hind paws, and knees were collected into 10% neutral buffered formalin (NBF) for microscopy. Spleens were harvested and weighed.

[3] = tested on: established type II collagen-induced arthritis (CIA) in DBA/1 mice; assay: 14-day mouse established type II collagen-induced arthritis (CIA), PO QD (Example 10); settings: 0.2 mg/kg PO QD; mean(SE)
Procedure: Prior to dosing, the candidate anti-inflammatory agents were reconstituted either by vortexing or stirring. The candidate anti-inflammatory agents were administered to the DBA/1 mice daily (QD) by the oral (PO) route.
Immunization with heterologous type II collagen (CII) induces arthritis in mice of the DBA/1 strain, which is genetically susceptible to this disease. To develop an experimental model of autoimmunity more adequate for the study of human rheumatoid arthritis (RA), male DBA/1 mice were injected intradermally (ID) with bovine type II collagen to induce arthritis as reported by Trentham et al (Trentham D E, Townes A S, Kang A H Autoimmunity to type II collagen: an experimental model of arthritis. J. Exper. Med. 1977, 146:857-868) and Bendele A (Bendele A, Animal models of rheumatoid arthritis. J. Musculoskelet. Neuronal Interact. 2001, 1(4):377-85). Male DBA/1 mice (n=114) that were 6-7 weeks old and weighed approximately 18-27 grams (mean 22 g) at enrollment (arthritis day 1) were obtained from Taconic Farms, Inc. The male DBA/1 mice were at least 6 weeks old at time of first immunization and were housed 3-5/cage in shoe-box polycarbonate cages with wire tops, wood chip bedding, and suspended food and water bottles. These animals were identified by a distinct number of ink marks at the base of the tail delineating animal number. After enrollment, all cages were labeled with protocol number, group number, and animal numbers.
The male DBA/1 (n=10/group for arthritis) were anaesthetized with Isoflurane, shaved at the base of the tail, and injected intradermally with 150 μL of Freund's Complete Adjuvant (Difco, Detroit, Mich.) containing bovine type II collagen (BBP, batch #7) (1 mg/ml) at the base of the tail on day 0 and again on day 21. […] Randomization was done after swelling was obviously established in at least one paw (score of 1) and attempts were made to ensure approximately equal mean scores of 0.5-1 across groups at the time of enrollment. […] The male DBA/1 mice were terminated on arthritis day 14 (3 hours post-dose).
as §1, with “evaluation of the administered anti-inflammatory agents” for “evaluation”, “13” for “19”, “14.” for “21.”

## O=P1(N(CCCl)CCCl)NCCCO1 (stereo not drawn) [Cyclophosphamide, cyclophosphamide, reference compound]
[1]
  Percent Survival: 100%
  anti-dsDNA IgG levels in plasma, reduction vs Vehicle Disease Controls: 76%
[1]; All Animals, mean (SE)
  Histopathology Glomerulus Diameter: *67.73 (2.10)
  Histopathology Interstitial Inflammation: *0.95 (0.19)
  Histopathology Summed Score: *2.18 (0.57)
  Kidney (paired) Weight (g): *0.432 (0.01) g
[1]; Term Animals, mean (SE)
  Change in Body Weight (g) wk 1-12: 3.30 (0.32) g
  Histopathology Glomerulus Diameter: *67.73 (2.10)
  Histopathology Interstitial Inflammation: *0.95 (0.19)
  Histopathology Summed Score: *2.18 (0.57)
  Kidney (paired) Weight (g): *0.432 (0.01) g
[1]; all animals
  absolute cumulative lymph node weights, reduction vs Vehicle Disease Controls: 87%
  absolute kidney weights, reduction vs Vehicle Disease Controls: 23%
  absolute mesenteric lymph node weights, reduction vs Vehicle Disease Controls: 76%
  absolute spleen weights, reduction vs Vehicle Disease Controls: 77%
  glomerulus crescent score, reduction: 100%
  glomerulus diameter, reduction: 89%
  glomerulus score, reduction: 88%
  interstitial inflammation, reduction: 74%
  percent of glomeruli with crescents, reduction: 100%
  protein cast score, reduction: 90%
  summed histopathology scores, reduction: 86%
  vasculitis, reduction: 82%
[1]; all animals or term animals only
  serum clinical chemistries vs Vehicle Disease Controls: significantly increased ALB, A/G, alkaline phosphatase (ALK), GLU, and Na/K and significantly reduced globulin (GLOB), BUN, BUN/creatinine, K, and AMY
[1]; all animals, mouse age 14-23 weeks
  urine protein scores vs Vehicle Disease Controls: significantly reduced
[1]; mouse age 15-23 weeks, all or term animals
  lymphadenopathy scores vs Vehicle Disease Controls: significantly reduced
[1]; mouse age 20-23 weeks, all or term animals
  skin lesion scores vs Vehicle Disease Controls: significantly reduced
[1]; term animals
  absolute cumulative lymph node weights, reduction vs Vehicle Disease Controls: 90%
  absolute kidney weights, reduction vs Vehicle Disease Controls: 32%
  absolute mesenteric lymph node weights, reduction vs Vehicle Disease Controls: 82%
  absolute spleen weights, reduction vs Vehicle Disease Controls: 82%
[1]; term animals only
  glomerulus crescent score, reduction: 100%
  glomerulus diameter, reduction: 85%
  glomerulus score, reduction: 86%
  interstitial inflammation, reduction: 70%
  percent of glomeruli with crescents, reduction: 100%
  protein cast score, reduction: 86%
  summed histopathology scores, reduction: 82%
  vasculitis, reduction: 80%
[1]; term animals only, mouse age 14-16 and 19-23 weeks
  urine protein scores vs Vehicle Disease Controls: significantly reduced
[1]; week 1 to week 5
  body weight gain: 1.03 g

## C[C@@H]1C[C@H]2[C@@H]3CCC4=CC(=O)C=C[C@]4(C)[C@@]3(F)[C@@H](O)C[C@]2(C)[C@@]1(O)C(=O)CO [Dex, dexamethasone, reference compound]
[2]; 0.2 mg/kg PO QD, mean(SE)
  AUC (All Paws) - Corrected for Initial Score: *−29.54(2.39)
  Change in Body Weight (g) Days 1-19: −0.17(0.28) g
  Histopathology Summed Score Knees: *5.23(0.89)
  Histopathology Summed Score Paws: *7.20(1.00)
  Histopathology Summed Score Six-Joints: *6.54(0.91)
  Paw Score AUC (All Paws): *16.61(2.05)
[2]; 0.2 mg/kg QD
  absolute spleen weights, reduction vs vehicle controls: 156%
  knee bone resorption, reduction vs vehicle controls: 88%
  knee cartilage damage, reduction vs vehicle controls: 39%
  knee inflammation, reduction vs vehicle controls: 57%
  knee pannus formation, reduction vs vehicle controls: 86%
  six joint histopathology, reduction of summed scores: 57%
  summed knee scores, reduction vs vehicle controls: 57%
[3]
  AUC (All Paws) - Corrected for Initial Score: *−5.85(0.73)
  Change in Body Weight (g): −2.22(0.54) g
  Histopathology Summed Score Knees: *1.80(0.66)
  Histopathology Summed Score Paws: *0.09(0.09)
  Histopathology Summed Score Six-Joints: *0.66(0.21)
  Paw Score AUC (All Paws): *1.30(0.37)
